Experimental data taken from the supplement of paper PMC3937590.

What was measured:
Assay in all cases: -log10 GI50 (growth inhibition 50%) (-log10(M)); higher = more potent growth inhibition
[1] = test system: EFM192B
How it was run: (§1)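 Breast cancer cell lines were treated with each compound for 72 hours at nine doses in 1:5 serial dilution, in triplicate, and luminescence was read against a time-zero plate. A Gompertz curve was fitted to the dose-response data by nonlinear least squares to obtain GI50, the molar concentration giving the set level of growth inhibition, which is reported as its negative logarithm. The logarithm is base 10, and values equal to the top dose carry a < qualifier.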

[2] = test system: CAL148
How it was run: as §1

[3] = test system: EFM19
How it was run: as §1

[4] = test system: EFM192C
How it was run: as §1

[5] = test system: JIMT1
How it was run: as §1

[6] = test system: CAL120
How it was run: as §1

[7] = test system: EFM192A
How it was run: as §1

[8] = test system: CAL851
How it was run: as §1

[9] = test system: SUM44PE
How it was run: as §1

[10] = test system: 21PT
How it was run: as §1

SMILES	-log10 GI50 [1]	-log10 GI50 [2]	-log10 GI50 [3]	-log10 GI50 [4]	-log10 GI50 [5]	-log10 GI50 [6]	-log10 GI50 [7]	-log10 GI50 [8]	-log10 GI50 [9]	-log10 GI50 [10]
CC(=O)NCC(=O)N1[C@@H]2CC[C@H]1c1ccc(Nc3ncc(C(F)(F)F)c(NC4CCC4)n3)cc12	5.28	7.04	5.63	5.07	5.41	5.76	5.09	5.04		
CC(=O)Nc1cccc(-n2c(=O)n(C3CC3)c(=O)c3c(Nc4ccc(I)cc4F)n(C)c(=O)c(C)c32)c1									6.91	
CCC[C@H](N[C@H]1CCc2cc(F)cc(F)c2C1)C(=O)Nc1cn(C(C)(C)CNCC(C)(C)C)cn1	4.8	4.91	4.79	4.46	4.7	4.76	4.58	5.29		
COc1ccc(-c2cc3c(C)nc(N)nc3n([C@H]3CC[C@H](OCCO)CC3)c2=O)cn1	6.73	6.35	7.42		6.46	6.05	6.92	7.4		
Cn1ncc(Cl)c1-c1cc(C(=O)N[C@H](CN)Cc2ccc(F)c(F)c2)oc1Cl	6.63	8.06	7.42		5.74	5.13	7.53	5.12		5.03
C=CCNC1=C2C[C@@H](C)C[C@H](OC)[C@H](O)[C@@H](C)/C=C(\C)[C@H](OC(N)=O)[C@@H](OC)/C=C\C=C(/C)C(=O)NC(=CC1=O)C2=O [17-AAG]									8.84	
CO[C@H]1C[C@@H]2CC[C@@H](C)[C@@](O)(O2)C(=O)C(=O)N2CCCC[C@H]2C(=O)O[C@H]([C@H](C)C[C@@H]2CC[C@@H](O)[C@H](OC)C2)CC(=O)[C@H](C)/C=C(\C)[C@@H](O)[C@@H](OC)C(=O)[C@H](C)C[C@H](C)/C=C/C=C/C=C/1C [Rapamycin]									9.26	
CC/C(=C(\c1ccccc1)c1ccc(OCCN(C)C)cc1)c1ccccc1 [Tamoxifen]									7.03	
CC[C@@]1(O)C(=O)OCc2c1cc1n(c2=O)Cc2cc3c(CN(C)C)c(O)ccc3nc2-1 [Topotecan]									6.43	
